In US20250282754A1, “BICYCLIC COMPOUNDS AND THEIR USE AS PEST CONTROL AGENTS” (Pl Industries Ltd., priority 2022, published 2025):

Assays:
Format in all cases: in vivo
[1] = tested on: Myzus persicae; experiment: Myzus persicae leaf dip test (capsicum leaves, third instar nymphs); conditions: foliar, dead and moribund third instar nymphs 72 h after release, compared to untreated controls, read-out: percent mortality
Experimental: The leaf dip method was used for testing, wherein the required quantity of the compound was weighed and dissolved in a tube containing a solvent solution. The tube was put on a vortex at 2000 rpm for proper mixing and then diluted with a 0.01% Triton-X solution to the desired test concentration. Capsicum leaves were dipped in the compound solution for 10 seconds, shade dried for 20 min and then placed, with the abaxial side of the leaf up, in single cells of a bio-assay tray containing 4 ml of a solidified 1% agar-agar solution. Known numbers of third instar nymphs of Myzus persicae, collected in petri plates, were released into the cell with the treated leaf and the cell was covered with a perforated lid for better aeration. The trays were kept in a plant growth chamber at a temperature of 25° C. and a relative humidity of 70%. Observations on dead, moribund and alive nymphs were recorded 72 h after the release. Percent mortality was calculated by combining dead and moribund nymphs and comparing the result with the one of the untreated controls. The compounds

[2] = tested on: Bemisia tabaci; experiment: Bemisia tabaci leaf dip test (brinjal leaves, whitefly adults); conditions: foliar, dead and moribund whitefly adults 72 h after release, compared to untreated controls, read-out: percent mortality
Experimental: The leaf dip method was used for testing, wherein the required quantity of the compound was weighed and dissolved in a tube containing a solvent solution. The tube was put on a vortex at 2000 rpm for proper mixing and then diluted with a 0.01% Triton-X solution to the desired test concentration. Brinjal leaves were dipped in the compound solution for 10 seconds; shade dried for 20 min and then placed, with the abaxial side of the leaf up, on 4 ml of a solidified 1% agar-agar solution in respective container caps. Known numbers of freshly emerged whitefly adults were collected, using a modified aspirator, and released into a perforated container in which the cap containing the treated leaf was placed. The containers were kept in a plant growth chamber at a temperature of 25° C. and relative humidity of 70%. Observations on dead, moribund and alive adults were recorded 72 h after the release. Percent mortality was calculated by combining dead and moribund adults and comparing the result to the one of the untreated controls. The compounds 1 9 11 18 25 28 29 30 31

[3] = tested on: Nilaparvata lugens; experiment: Nilaparvata lugens seedling dip test (paddy seedlings, third instar nymphs); conditions: dead and moribund third instar nymphs 72 h after release, compared to untreated controls, read-out: percent mortality
Experimental: The seedling dip method was used for testing, wherein the required quantity of the compound was weighed and dissolved in a tube containing a solvent solution. The tube was put on a vortex at 2000 rpm for proper mixing and then diluted with a 0.01% Triton-X solution to the desired test concentration. Paddy seedlings were dipped in the compound solution for 10 seconds, shade dried for 20 min and then the seedlings were placed in glass test tubes with the roots kept in water. 15 third instar nymphs of Nilaparvata lugens were released into each test tube and the tubes were kept in a plant growth chamber at a temperature of 25° C. and relative humidity of 75%. Observations on dead, moribund and alive nymphs were recorded 72 h after the release. Percent mortality was calculated by combining dead and moribund nymphs and comparing the result to the one of the untreated controls. The compounds

| Compound | mortality at 300 ppm [1] | mortality at 300 ppm [2] | mortality at 300 ppm [3] |
| --- | --- | --- | --- |
| CC(=O)N=S(=O)(CCCF)c1ccc2nn(-c3cncc(F)c3)cc2c1 (centres unmarked) [Compound 487] | ≥ 70% | – | – |
| CCS(=O)(CC)=Nc1ccc2nn(-c3cccnc3)cc2n1 [Compound 249] | ≥ 70% | ≥ 70% | – |
| COc1nn(-c2ccc3nn(-c4cccnc4)cc3c2)c(=O)n1Cc1ccc(F)cc1 [Compound 124, 4-(4-fluorobenzyl)-5-methoxy-2-(2-(pyridin-3-yl)-2H-indazol-5-yl)-2,4-dihydro-3H-1,2,4-triazol-3-one] | ≥ 70% | ≥ 70% | – |
| Cc1cncc(-n2cc3cc(N=S(C)(C)=O)ccc3n2)c1 [Compound 168] | ≥ 70% | – | – |
| CCCS(=O)(=Nc1ccc2nn(-c3cccnc3)cc2c1)C(C)C (centres unmarked) [Compound 256] | ≥ 70% | – | – |
| CC1(CS(=N)(=O)c2ccc3nn(-c4cncc(F)c4)cc3c2)COC1 (centres unmarked) [Compound 484, (2-(5-fluoropyridin-3-yl)-2H-indazol-5-yl)(imino)((3-methyloxetan-3-yl)methyl)-λ^6-sulfanone] | ≥ 70% | – | – |
| CS(C)(=O)=Nc1ccc2nn(-c3cncc(F)c3)cc2n1 [Compound 306] | ≥ 70% | ≥ 70% | – |
| N=S(=O)(c1ccc2nn(-c3cccnc3)cc2c1)C1CCCC1 (centres unmarked) [Compound 558, cyclopentyl(imino)(2-(pyridin-3-yl)-2H-indazol-5-yl)-λ^6-sulfanone] | ≥ 70% | – | – |
| N=S(=O)(c1ccc2nn(-c3cccnc3)cc2c1)C1CCCCC1 (centres unmarked) [Compound 560, cyclohexyl(imino)(2-(pyridin-3-yl)-2H-indazol-5-yl)-λ^6-sulfanone] | ≥ 70% | – | – |
| CCS(=N)(=O)c1ccc2nn(-c3cncnc3)cc2c1 (centres unmarked) [Compound 455, ethyl(imino)(2-(pyrimidin-5-yl)-2H-indazol-5-yl)-λ^6-sulfanone] | ≥ 70% | ≥ 70% | – |
| CC(=O)N=S(C)(=O)c1ccc2nn(-c3cncnc3)cc2c1 (centres unmarked) [Compound 475] | – | ≥ 70% | ≥ 70% |
| O=S(CCC(F)(F)F)(=Nc1ccc2nn(-c3ccnnc3)cc2c1)c1ccc(F)cc1 (centres unmarked) [Compound 70] | ≥ 70% | – | – |
| CCN=S(=O)(c1ccc2nn(-c3cccnc3)cc2c1)C1CCC1 (centres unmarked) [Compound 567] | ≥ 70% | – | – |
| N=S(=O)(CC1CC1)c1ccc2nn(-c3cncnc3)cc2c1 (centres unmarked) [Compound 450, (cyclopropylmethyl)(imino)(2-(pyrimidin-5-yl)-2H-indazol-5-yl)-λ^6-sulfanone] | – | ≥ 70% | ≥ 70% |
| CN=S(=O)(CC1CC1)c1ccc2nn(-c3cncnc3)cc2c1 (centres unmarked) [Compound 447] | – | ≥ 70% | ≥ 70% |
| CCC(C)S(=O)(=NC(C)=O)c1ccc2nn(-c3cncc(F)c3)cc2c1 (centres unmarked) [Compound 486] | ≥ 70% | – | – |
| CCCS(=O)(CC)=Nc1cccc2nn(-c3cncc(F)c3)cc12 (centres unmarked) [Compound 138] | ≥ 70% | – | – |
| CC(C)S(=O)(=Nc1ccc2nn(-c3cccnc3)cc2c1)c1ccc(F)cc1 (centres unmarked) [Compound 38] | – | ≥ 70% | ≥ 70% |
| CS(C)(=O)=Nc1cccc2nn(-c3cncc(F)c3)cc12 [Compound 87] | – | ≥ 70% | ≥ 70% |
| CCS(=O)(CC)=Nc1cccc2nn(-c3cncc(F)c3)cc12 [Compound 89] | ≥ 70% | – | – |
| CCN=S(=O)(c1ccc2nn(-c3cncc(F)c3)cc2c1)C(CC)CC (centres unmarked) [Compound 492] | ≥ 70% | – | – |
| CC(=O)N=S(=O)(c1ccc2nn(-c3cccnc3)cc2c1)C1CCCC1 (centres unmarked) [Compound 581] | ≥ 70% | – | – |
| CCCCCS(C)(=O)=Nc1ccc2nn(-c3cncnc3)cc2c1 (centres unmarked) [Compound 33] | – | ≥ 70% | ≥ 70% |
| CCCS(=O)(CC)=Nc1cccc2nn(-c3cccnc3)cc12 (centres unmarked) [Compound 136] | ≥ 70% | – | – |
| N=S(=O)(c1ccc2nn(-c3cncc(F)c3)cc2c1)C1CCC1 (centres unmarked) [Compound 488, cyclobutyl(2-(5-fluoropyridin-3-yl)-2H-indazol-5-yl)(imino)-λ^6-sulfanone] | ≥ 70% | – | – |
| CCS(=O)(=NC(C)=O)c1ccc2nn(-c3cncnc3)cc2c1 (centres unmarked) [Compound 456] | ≥ 70% | – | – |

| Compound | mortality at 300 ppm [1] | mortality at 300 ppm [2] | mortality at 300 ppm [3] |
| --- | --- | --- | --- |
| CS(C)(=O)=Nc1ccc(Cl)c2nn(-c3cccnc3)cc12 [Compound 217] | ≥ 70% | – | – |
| CCCS(=O)(=NC(C)=O)c1ccc2nn(-c3cncc(F)c3)cc2c1 (centres unmarked) [Compound 483] | ≥ 70% | – | – |
| CS(C)(=O)=Nc1ccc2nn(-c3cncnc3)cc2c1 [Compound 9] | – | ≥ 70% | ≥ 70% |
| CCN=S(=O)(CC)c1ccc2nn(-c3cccnc3)cc2c1 (centres unmarked) [Compound 391] | – | ≥ 70% | ≥ 70% |
| CCCS(=O)(CCC)=Nc1cccc2nn(-c3cccnc3)cc12 [Compound 78] | – | ≥ 70% | ≥ 70% |
| N#CCCCS(=N)(=O)c1ccc2nn(-c3cccnc3)cc2c1 (centres unmarked) [Compound 564, 4-(2-(pyridin-3-yl)-2H-indazole-5-sulfonimidoyl)butanenitrile] | ≥ 70% | – | – |
| CCS(=N)(=O)c1ccc2nn(-c3cncc(F)c3)cc2c1 (centres unmarked) [Compound 460, ethyl(2-(5-fluoropyridin-3-yl)-2H-indazol-5-yl)(imino)-λ^6-sulfanone] | ≥ 70% | – | – |
| CCS(=O)(=NC(C)=O)c1ccc2nn(-c3cncc(F)c3)cc2c1 (centres unmarked) [Compound 462] | – | ≥ 70% | ≥ 70% |
| CC(C)S(=O)(CCC(F)(F)F)=Nc1cccc2nn(-c3cncc(F)c3)cc12 (centres unmarked) [Compound 104] | – | ≥ 70% | ≥ 70% |
| CCN=S(C)(=O)c1ccc2nn(-c3cncnc3)cc2c1 (centres unmarked) [Compound 474] | – | ≥ 70% | ≥ 70% |
| CS(=N)(=O)c1ccc2nn(-c3cncnc3)cc2c1 (centres unmarked) [Compound 470, imino(methyl)(2-(pyrimidin-5-yl)-2H-indazol-5-yl)-λ^6-sulfanone] | – | ≥ 70% | ≥ 70% |
| CCN=S(=O)(c1ccc2nn(-c3cncc(F)c3)cc2c1)C(C)CC (centres unmarked) [Compound 490] | ≥ 70% | – | – |
| COc1nn(-c2ccc3nn(-c4cccnc4)cc3c2)c(=O)n1Cc1cccc(F)c1 [Compound 126, 4-(3-fluorobenzyl)-5-methoxy-2-(2-(pyridin-3-yl)-2H-indazol-5-yl)-2,4-dihydro-3H-1,2,4-triazol-3-one] | – | ≥ 70% | ≥ 70% |
| O=S(CC1CC1)(=NC1CC1)c1ccc2nn(-c3cncnc3)cc2c1 (centres unmarked) [Compound 446] | – | ≥ 70% | ≥ 70% |
| N=S(=O)(CC1CCCO1)c1ccc2nn(-c3cccnc3)cc2c1 (centres unmarked) [Compound 569, imino(2-(pyridin-3-yl)-2H-indazol-5-yl)((tetrahydrofuran-2-yl)methyl)-λ^6-sulfanone] | ≥ 70% | – | – |
| CCC(CC)S(=O)(=NC(C)=O)c1ccc2nn(-c3cncc(F)c3)cc2c1 (centres unmarked) [Compound 485] | ≥ 70% | – | – |
| CC(C)S(=O)(CCC(F)(F)F)=Nc1cccc2nn(-c3cccnc3)cc12 (centres unmarked) [Compound 102] | ≥ 70% | – | – |
| CCN=S(=O)(CCCF)c1ccc2nn(-c3cncc(F)c3)cc2c1 (centres unmarked) [Compound 491] | ≥ 70% | – | – |
| CCCS(C)(=O)=Nc1ccc2nn(-c3cncnc3)c(Cl)c2c1 (centres unmarked) [Compound 180] | ≥ 70% | – | – |
| CS(=O)(=Nc1ccc2nn(-c3cccnc3)cc2c1)c1cccnc1 (centres unmarked) [Compound 30] | – | ≥ 70% | ≥ 70% |
| CCCCS(=O)(=NCC)c1ccc2nn(-c3cccnc3)cc2c1 (centres unmarked) [Compound 390] | ≥ 70% | – | – |
| CC(C)S(=O)(CCC(F)(F)F)=Nc1ccc2nn(-c3cccnc3)cc2c1 (centres unmarked) [Compound 99] | ≥ 70% | – | – |
| CC(C)S(C)(=O)=Nc1cccc2nn(-c3cncc(F)c3)cc12 (centres unmarked) [Compound 90] | ≥ 70% | – | – |
| CCS(=O)(CC)=Nc1ccc2nn(-c3cncnc3)cc2c1 [Compound 11] | – | ≥ 70% | ≥ 70% |
| CC(C)S(C)(=O)=Nc1cnc2nn(-c3cccnc3)cc2c1 (centres unmarked) [Compound 156] | ≥ 70% | – | – |
| CCOc1nn(-c2ccc3nn(-c4cccnc4)cc3c2)c(=O)n1Cc1ccccc1F [Compound 358, 5-ethoxy-4-(2-fluorobenzyl)-2-(2-(pyridin-3-yl)-2H-indazol-5-yl)-2,4-dihydro-3H-1,2,4-triazol-3-one] | – | ≥ 70% | ≥ 70% |
